The results in this text go back to US20050261319A1, “Novel 2-amino-4-quinazolinones and 2-amino-4-oxoquinazolones as LXR nuclear receptor binding compounds with partial agonistic properties” (priority 2002, published 2005).

Assay [1] deals with T1, GAL4-LXRa-LBD (Homo sapiens, UniProt Q13133).
T1 construct: expressed in transfected cells; host or cells: HEK293
T1 sequence (Q13133 209-447 limits assumed): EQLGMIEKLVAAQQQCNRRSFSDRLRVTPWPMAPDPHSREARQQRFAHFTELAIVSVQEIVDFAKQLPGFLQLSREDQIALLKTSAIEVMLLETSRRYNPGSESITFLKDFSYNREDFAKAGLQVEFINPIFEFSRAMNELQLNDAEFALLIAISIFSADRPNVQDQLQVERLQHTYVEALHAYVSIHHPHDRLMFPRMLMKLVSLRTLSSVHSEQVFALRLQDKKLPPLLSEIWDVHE
Kind of assay: Mammalian one hybrid (M1H) luciferase assay in HEK293 cells, LXR alpha LBD. Type of assay: cell-based. Here is the method:
For TR1040001892, TR1040011382, TR1040002211, and TR1040002212, HEK293 cells are grown in 96 well plates and co-transfected with pFR-luc (Stratagene) and pCMV-BD-LXRa-LBD or pCMV-BD-LXRb-LBD (each 100 ng of plasmid DNA per well). Transfection is carried using Lipfectamine 2000 (Gibco-BRL) according to the manufacturers protocol. The ligand binding domains (LBD) of LXRa and LXRb are cloned into the pCMV-BD-GW (the Gateway Reading Frame Cassette B is cloned as an EcoRV fragment into Sma1 site of pCMV-BD) applying the manufacturer protocols for the Gateway system (Invitrogen). […] The type of assay used here is a mammalian one hybrid (M1 H) assay that is known to those skilled in the art.

Assay [2] has as its system THP-1 macrophages. Kind of assay: Cholesterol efflux from differentiated THP-1 macrophages. Type of assay: cell-based. The conditions noted are these: ApoA1, 10 uM, 24 h. Here is the method:
Methods: Cultures of the monocyte-macrophage cell line and the hepatocytes HepG2 are obtained from the American Type tissue Culture Collection, Rockville, Md. and were grown in RPMI 1640 medium supplemented with 10% fetal bovine serum, 10 mM HEPES, 2 mM pyruvate, 50 uM (3-Mercaptoethanol (THP-1) and Minimum essential medium (Eagle) with 2 mM L-glutamine and Earle's BSS supplemented with 10% fetal bovine serum, 2 mM glutamin, 0.1 mM non-essential amino acids, 1 mM sodium pyruvate (HepG2), respectively, at 37° C. in 5% CO2. THP-1 cells are differentiated into macrophages by addition of 100 nM Phorbol 12-Myristate 13-Acetate (PMA; Sigma P8139) and PMA included in the medium of all subsequent experiments to maintain differentiation. For cholesterol efflux measurements and triglyceride analysis cells are seeded in 6 well plates at 1.8×10^6 cells (THP-1) and 1×10^6 cells (HepG2) per well, respectively. CHOLESTEROL EFFLUX THP-1 cells are seeded in 6 well plates at 1×10^6 cells per well in RPMI 1640 medium containing 10% FCS and 100 nM TPA for 72 h. After washing with PBS cells are incubated 24 h with fresh in RPMI 1640 medium containing 10% FCS and 100 nM TPA. […] Medium is collected, centrifuged to remove cell debris and assayed for cholesterol using a commercial fluorometric kit (Molecular Probes A-12216). The remaining cellular proteins are lysed with 0.3 NNaOH and protein content measured with the Biorad Bradford reagent. THP-1 (1×10^6 cells per dish) cells were seeded in 6 well dishes in 3 ml modified RPMI 1640 medium (ATTC, Cat. […] After incubation for 24 hours, total cholesterol was determined from cell supernatant in each of the wells using an enzymatic assay with fluorescence read-out for the determination of cholesterol (Amplex Red Cholesterol Assay Kit (A-12213). The fluorescence readout per mg of total protein content as determined from cells that were present in the respective well are shown in FIGS. 9 or 11 as an example.

For the compound `C=CCn1c(N2C3CC(C)(C)CC2(C)C3)nc2ccc(I)cc2c1=O` (centres unmarked) [formula (9)], the “luciferase reporter gene expression mediated through GAL4-LXRa-LBD” value in assay [1] is recorded as “activate luciferase reporter gene expression in a dose dependent manner”. The cholesterol export result in assay [2] was “marked increase”.

On to `CC(C)n1c(N2C3CC(C)(C)CC2(C)C3)nc2ccc(I)cc2c1=O` (centres unmarked) [formula (10)], for which the “luciferase reporter gene expression mediated through GAL4-LXRa-LBD” value in assay [1] is listed as “activate luciferase reporter gene expression in a dose dependent manner”. Moreover, the cholesterol export result in assay [2] was “marked increase”.

As to `CCCn1c(N2[C@@H]3CC(C)(C)C[C@@]2(C)C3)nc2cccc(F)c2c1=O` [formula (11)], the “luciferase reporter gene expression mediated through GAL4-LXRa-LBD” value in assay [1] was “activate luciferase reporter gene expression in a dose dependent manner”. Moreover, in assay [2], the cholesterol export result is listed as “marked increase”.

Take `C=CCn1c(N2[C@@H]3CC(C)(C)C[C@@]2(C)C3)nc2cccc(F)c2c1=O` [formula (12)]: the “luciferase reporter gene expression mediated through GAL4-LXRa-LBD” value in assay [1] is on record as “activate luciferase reporter gene expression in a dose dependent manner”. The cholesterol export result in assay [2] is “marked increase”.
